Results on 20 compounds are retold here after patent publication US12071441B2, “10-(di(phenyl)methyl)-4-hydroxy-8,9,9A,10-tetrahydro-7H-pyrrolo[1′,2′:4,5]pyrazino[1,2-b]pyridazine-3,5-dione derivatives and related compounds as inhibitors of the orthomyxovirus replication for treating influenza” (Novartis AG, priority 2018, dated 2024).

Holding throughout (experiment): microbe, parasite or virus in culture
Common to all, as to type: cell-based

For test [1], the system named is influenza A virus minigenome (PB2, PB1, PA, NP; luciferase reporter) in 293T cells, RNP_Alaska. The conditions noted are these: HEK-293T, 48 h.
In test [2] the test system is influenza A virus minigenome (PB2, PB1, PA, NP; luciferase reporter) in 293T cells, RNP_CAL. The conditions noted are these: HEK-293T, 48 h, read-out: RNP_CAL_EC50.
Test [3] deals with influenza A virus minigenome (PB2, PB1, PA, NP; luciferase reporter) in 293T cells, RNP_Hubei. The conditions noted are these: HEK-293T, 48 h.

For `CN1CCN(C(=O)Oc2c3n(ncc2=O)[C@@H]([C@H](c2ccccc2)c2cccc(F)c2F)[C@H]2CCCN2C3=O)CC1` [Example 44, (9aR,10S)-10-((R)-(2,3-difluorophenyl)(phenyl)methyl)-3,5-dioxo-3,5,8,9,9a,10-hexahydro-7H-pyrrolo[1′,2′:4,5]pyrazino[1,2-b]pyridazin-4-yl 4-methylpiperazine-1-carboxylate], the EC50 is 100 to 1000 nM in test [1], 100 to 1000 nM in test [2] and < 100 nM in test [3].

As to `COC(=O)OCOc1c2n(ncc1=O)[C@@H]([C@H](c1cccc(F)c1)c1ccc(F)c(F)c1)[C@H]1CCCN1C2=O` [Example 45, (((9aR,10S)-10-((R)-(3,4-difluorophenyl)(3-fluorophenyl)methyl)-3,5-dioxo-3,5,8,9,9a,10-hexahydro-7H-pyrrolo[1′,2′:4,5]pyrazino[1,2-b]pyridazin-4-yl)oxy)methyl methyl carbonate], the EC50 in test [1], in test [2] and in test [3] was < 100 nM throughout.

`O=C(Oc1c2n(ncc1=O)[C@@H]([C@H](c1ccccc1)c1cccc(F)c1F)[C@H]1CCCN1C2=O)N1CCCCC1` [Example 48, (9aR,10S)-10-((R)-(2,3-difluorophenyl)(phenyl)methyl)-3,5-dioxo-3,5,8,9,9a,10-hexahydro-7H-pyrrolo[1′,2′:4,5]pyrazino[1,2-b]pyridazin-4-yl piperidine-1-carboxylate]: the EC50 in test [1], in test [2] and in test [3] was < 100 nM in each case.

As to `CC(C)(C)OC(=O)Oc1c2n(ncc1=O)[C@@H]([C@H](c1ccccc1)c1cccc(F)c1F)[C@H]1CCCN1C2=O` [Example 49, tert-butyl ((9aR,10S)-10-((R)-(2,3-difluorophenyl)(phenyl)methyl)-3,5-dioxo-3,5,8,9,9a,10-hexahydro-7H-pyrrolo[1′,2′:4,5]pyrazino[1,2-b]pyridazin-4-yl) carbonate], the EC50 in test [1], in test [2] and in test [3] was < 100 nM throughout.

Take `COCCOC(=O)Oc1c2n(ncc1=O)[C@@H]([C@H](c1ccccc1)c1cccc(F)c1F)[C@H]1CCCN1C2=O` [Example 50, (9aR,10S)-10-((R)-(2,3-difluorophenyl)(phenyl)methyl)-3,5-dioxo-3,5,8,9,9a,10-hexahydro-7H-pyrrolo[1′,2′:4,5]pyrazino[1,2-b]pyridazin-4-yl (2-methoxyethyl) carbonate]: the EC50 in test [1], in test [2] and in test [3] was < 100 nM in each case.

Turning to `CCOC(=O)OCOc1c2n(ncc1=O)[C@@H]([C@H](c1ccccc1)c1cccc(F)c1F)[C@H]1CCCN1C2=O` [Example 51, (((9aR,10S)-10-((R)-(2,3-difluorophenyl)(phenyl)methyl)-3,5-dioxo-3,5,8,9,9a,10-hexahydro-7H-pyrrolo[1′,2′:4,5]pyrazino[1,2-b]pyridazin-4-yl)oxy)methyl ethyl carbonate], the EC50 in test [1], in test [2] and in test [3] was < 100 nM in each case.

Turning to `CC(C)OC(=O)OCOc1c2n(ncc1=O)[C@@H]([C@H](c1ccccc1)c1cccc(F)c1F)[C@H]1CCCN1C2=O` [Example 52, (((9aR,10S)-10-((R)-(2,3-difluorophenyl)(phenyl)methyl)-3,5-dioxo-3,5,8,9,9a,10-hexahydro-7H-pyrrolo[1′,2′:4,5]pyrazino[1,2-b]pyridazin-4-yl)oxy)methyl isopropyl carbonate], the EC50 in test [1], in test [2] and in test [3] was < 100 nM in each case.

`CCOC(=O)Oc1c2n(ncc1=O)[C@@H]([C@H](c1ccccc1)c1cccc(F)c1F)[C@H]1CCCN1C2=O` [Example 53, (9aR,10S)-10-((R)-(2,3-difluorophenyl)(phenyl)methyl)-3,5-dioxo-3,5,8,9,9a,10-hexahydro-7H-pyrrolo[1′,2′:4,5]pyrazino[1,2-b]pyridazin-4-yl ethyl carbonate]: the EC50 in test [1], in test [2] and in test [3] was < 100 nM throughout.

With `CC(C)(C)OC(=O)OCOc1c2n(ncc1=O)[C@@H]([C@H](c1ccccc1)c1cccc(F)c1F)[C@H]1CCCN1C2=O` [Example 55, tert-butyl ((((9aR,10S)-10-((R)-(2,3-difluorophenyl)(phenyl)methyl)-3,5-dioxo-3,5,8,9,9a,10-hexahydro-7H-pyrrolo[1′,2′:4,5]pyrazino[1,2-b]pyridazin-4-yl)oxy)methyl) carbonate], the EC50 is 100 to 1000 nM in test [1], 100 to 1000 nM in test [2] and < 100 nM in test [3].

For `CCOC(=O)OC(C)Oc1c2n(ncc1=O)[C@@H]([C@H](c1ccccc1)c1cccc(F)c1F)[C@H]1CCCN1C2=O` (stereo partly drawn) [Example 56, 1-(((9aR,10S)-10-((R)-(2,3-difluorophenyl)(phenyl)methyl)-3,5-dioxo-3,5,8,9,9a,10-hexahydro-7H-pyrrolo[1′,2′:4,5]pyrazino[1,2-b]pyridazin-4-yl)oxy)ethyl ethyl carbonate], the EC50 is 100 to 1000 nM in test [1], 100 to 1000 nM in test [2] and < 100 nM in test [3].

Turning to `CN(C)C(=O)OCOc1c2n(ncc1=O)[C@@H]([C@H](c1ccccc1)c1cccc(F)c1F)[C@H]1CCCN1C2=O` [Example 57, (((9aR,10S)-10-((R)-(2,3-difluorophenyl)(phenyl)methyl)-3,5-dioxo-3,5,8,9,9a,10-hexahydro-7H-pyrrolo[1′,2′:4,5]pyrazino[1,2-b]pyridazin-4-yl)oxy)methyl dimethylcarbamate], the EC50 in test [1], in test [2] and in test [3] was < 100 nM each time.

On to `CC(=O)Oc1c2n(ncc1=O)[C@@H]([C@H](c1ccccc1)c1cccc(F)c1F)[C@H]1CCCN1C2=O` [Example 58, (9aR,10S)-10-((R)-(2,3-difluorophenyl)(phenyl)methyl)-3,5-dioxo-3,5,8,9,9a,10-hexahydro-7H-pyrrolo[1′,2′:4,5]pyrazino[1,2-b]pyridazin-4-yl acetate], for which the EC50 in test [1], in test [2] and in test [3] was < 100 nM in each case.

`CCC(=O)Oc1c2n(ncc1=O)[C@@H]([C@H](c1ccccc1)c1cccc(F)c1F)[C@H]1CCCN1C2=O` [Example 59, (9aR,10S)-10-((R)-(2,3-difluorophenyl)(phenyl)methyl)-3,5-dioxo-3,5,8,9,9a,10-hexahydro-7H-pyrrolo[1′,2′:4,5]pyrazino[1,2-b]pyridazin-4-yl propionate]: the EC50 in test [1], in test [2] and in test [3] was < 100 nM each time.

In the case of `CC(C)CC(=O)Oc1c2n(ncc1=O)[C@@H]([C@H](c1ccccc1)c1cccc(F)c1F)[C@H]1CCCN1C2=O` [Example 60, (9aR,10S)-10-((R)-(2,3-difluorophenyl)(phenyl)methyl)-3,5-dioxo-3,5,8,9,9a,10-hexahydro-7H-pyrrolo[1′,2′:4,5]pyrazino[1,2-b]pyridazin-4-yl 3-methylbutanoate], the EC50 in test [1], in test [2] and in test [3] was < 100 nM each time.

As to `COCCC(=O)Oc1c2n(ncc1=O)[C@@H]([C@H](c1ccccc1)c1cccc(F)c1F)[C@H]1CCCN1C2=O` [Example 61, (9aR,10S)-10-((R)-(2,3-difluorophenyl)(phenyl)methyl)-3,5-dioxo-3,5,8,9,9a,10-hexahydro-7H-pyrrolo[1′,2′:4,5]pyrazino[1,2-b]pyridazin-4-yl 3-methoxypropanoate], the EC50 in test [1], in test [2] and in test [3] was < 100 nM throughout.

Consider `CC(C)(C)C(=O)Oc1c2n(ncc1=O)[C@@H]([C@H](c1ccccc1)c1cccc(F)c1F)[C@H]1CCCN1C2=O` [Example 62, (9aR,10S)-10-((R)-(2,3-difluorophenyl)(phenyl)methyl)-3,5-dioxo-3,5,8,9,9a,10-hexahydro-7H-pyrrolo[1′,2′:4,5]pyrazino[1,2-b]pyridazin-4-yl pivalate], for which the EC50 in test [1], in test [2] and in test [3] was < 100 nM in each case.

Take `CC(C)(C)C(=O)OCOc1c2n(ncc1=O)[C@@H]([C@H](c1ccccc1)c1cccc(F)c1F)[C@H]1CCCN1C2=O` [Example 63, (((9aR,10S)-10-((R)-(2,3-difluorophenyl)(phenyl)methyl)-3,5-dioxo-3,5,8,9,9a,10-hexahydro-7H-pyrrolo[1′,2′:4,5]pyrazino[1,2-b]pyridazin-4-yl)oxy)methyl pivalate]: the EC50 in test [1], in test [2] and in test [3] was < 100 nM each time.

Turning to `CCN(CC)C(=O)OCOc1c2n(ncc1=O)[C@@H]([C@H](c1ccccc1)c1cccc(F)c1F)[C@H]1CCCN1C2=O` [Example 67, (((9aR,10S)-10-((R)-(2,3-difluorophenyl)(phenyl)methyl)-3,5-dioxo-3,5,8,9,9a,10-hexahydro-7H-pyrrolo[1′,2′:4,5]pyrazino[1,2-b]pyridazin-4-yl)oxy)methyl diethylcarbamate], the EC50 in test [1], in test [2] and in test [3] was ≥ 1000 nM each time.

With `CCN(C)C(=O)OCOc1c2n(ncc1=O)[C@@H]([C@H](c1ccccc1)c1cccc(F)c1F)[C@H]1CCCN1C2=O` [Example 68, (((9aR,10S)-10-((R)-(2,3-difluorophenyl)(phenyl)methyl)-3,5-dioxo-3,5,8,9,9a,10-hexahydro-7H-pyrrolo[1′,2′:4,5]pyrazino[1,2-b]pyridazin-4-yl)oxy)methyl ethyl(methyl)carbamate], the EC50 in test [1], in test [2] and in test [3] was ≥ 1000 nM each time.

Turning to `O=C(Oc1c2n(ncc1=O)[C@@H]([C@H](c1ccccc1)c1cccc(F)c1F)[C@H]1CCCN1C2=O)c1ccccc1` [Example 69, (9aR,10S)-10-((R)-(2,3-difluorophenyl)(phenyl)methyl)-3,5-dioxo-3,5,8,9,9a,10-hexahydro-7H-pyrrolo[1′,2′:4,5]pyrazino[1,2-b]pyridazin-4-yl benzoate], the EC50 in test [1], in test [2] and in test [3] was < 100 nM throughout.
